Reference: US20240374646A1, “COMPOSITION FOR INHIBITING INFLAMMATION OR AGING OF STEM CELLS, AND METHOD FOR INHIBITING INFLAMMATION OR AGING BY USING SAME” (MITOIMMUNE THERAPEUTICS INC., priority 2021, published 2024)

Assays:
[1] = system: p16; assay: Real-time qPCR, p16 cell cycle-related gene expression; type: cell-based, human; conditions: TNF-α/IFN-γ-exposed MSCs treated with compound; FIG. 1C
Procedure: (§1) Human placenta-derived mesenchymal stem cells (hPD-MSCs) were harvested from inside the placental chorion, and the harvested cells were cultured in an alpha-Minimum Essential medium (Cytiva, Marlborough, MA, USA) supplemented with 10% fetal bovine serum (ThermoFisher, Waltham, MA, USA), 1% penicillin/streptomycin (ThermoFisher, Waltham, MA, USA), 25 ng/mL human fibroblast growth factor-4 (Peprotech, Rocky Hill, NJ, USA) and 1 μg/mL heparin (Merck, San Francisco, CA, USA). A total of 1×10^5 hPD-MSCs were seeded in a cell culture dish (90×20 mm) (SPL, Pocheon, Korea) and cultured at 37° C. in an incubator containing 5% CO2. The cells were subcultured every 4 days until reaching 70 to 80% confluency. Expanded cells were obtained at passage 12 or 13. During subculture, viable cells were stained with Trypan blue (Merck) and the number of cells was manually counted.
(§2) In a passage for sample extraction, hPD-MSCs were cultured for 24 hours in a medium with or without an example compound (5-[(1,1-dioxido-4-thiomorpholinyl)methyl]-2-phenyl-N-(tetrahydro-2H-pyran-4-yl)-1H-indole-7-amine) while including 2.5 ng/mL TNF-α (Peprotech) and 25 ng/mL IFN-γ (Peprotech).
In the present experiment, the expression levels of stem cell differentiation-related genes and cell cycle-related genes were analyzed by qPCR. […]

[2] = system: TNF-α/IFN-γ-exposed hPD-MSCs; assay: Cell viability at each concentration of the example compound; type: cell-based; conditions: TNF-α/IFN-γ exposure, different concentrations of compound; FIG. 1D
Procedure: as §1, §2
Meanwhile, upon exposure to TNF-α/IFN-γ and treatment with the example compound, cell viability was evaluated, and the results are shown in FIG. 1D.

[3] = system: AKT; assay: Western blotting, AKT phosphorylation ratio (mTORC1 pathway); type: cell-based, human; conditions: vs MSC control exposed to TNF-α/IFN-γ; FIG. 4D
Procedure: Further, the phosphorylation-induced activation ratios of AKT/mTOR/S6K, which represents the mTORC1 pathway, was analyzed. mTORC1 activation is known to not only induce senescence-associated phenotypes in MSCs, but also impair quiescence and sternness. In the present experiment, the phosphorylation ratio was confirmed using western blotting analysis as described below.
Proteins were extracted with a Pro-Prep protein lysis buffer (iNtRON) and quantified by a protein quantitative analysis kit (BIOMAX, Seoul, Korea). Samples were then heated in 4× Laemmli sample buffer (Bio-Rad) containing 2-mercaptoethanol (Bio-Rad), and proteins were loaded onto an 8% sodium dodecyl sulfate polyacrylamide gel and electrophoresed at 60 V for 30 minutes, and then electrophoresed at 120 V for 1 hour. […]
Immunoreactive bands were detected using an enhanced chemiluminescence detection reagent (Clarity™ Western blot substrate, Bio-Rad) and images of the bands were obtained using ImageSaver Version 6 (ATTO, Tokyo, Japan). The intensity of each band was analyzed with CA4 analyzer software (ATTO), and each experiment was performed in triplicate under the same conditions. […]

`O=S1(=O)CCN(Cc2cc(NC3CCOCC3)c3[nH]c(-c4ccccc4)cc3c2)CC1` [example compound, 5-[(1,1-dioxido-4-thiomorpholinyl)methyl]-2-phenyl-N-(tetrahydro-2H-pyran-4-yl)-1H-indole-7-amine] was tested, and the “p16 expression (relative to untreated MSC control)” value [1] was “remarkably decreased”, the cell viability [2] was “high” and the “reduction of AKT phosphorylation ratio (pAKT/AKT)” value [3] was “about 25%”.
